Where “and” joins values, the source holds several entries; their conditions need not be identical. Equal entries are not always repeated.
Legend:
[1] = Liquid
[2] = refractive index (Na D-line) (dimensionless); conditions: 101.33 kPa, Liquid, Standard Abbe refractometry
[3] = refractive index (Na D-line) (dimensionless); xn = mol fraction of the nth substance listed; conditions: 298.15 K, 101 kPa, Liquid, Standard Abbe refractometry
[4] = xn = mol fraction of the nth substance listed; conditions: 101 kPa, Liquid

CCOS(=O)(=O)[O-].CC[n+]1ccccc1 [1-ethylpyridinium ethyl sulfate]
[1]
Conditions	mass density, 101.33 kPa [kg/m3]	speed of sound, 101.33 kPa [m/s]	viscosity, 101 kPa [mPa·s]	viscosity, 101.33 kPa [mPa·s]
298.15 K	1252	1711	–	126.3
303.15 K	1248.7	1699	–	93
308.15 K	1245.4	1687	–	72.1
313.15 K	1242.1	1676	–	57.6
318.15 K	1238.8	1664	–	46.4
323.15 K	1235.6	1653	–	38.6
328.15 K	1232.3	1641	38.6	32.53
333.15 K	1229.1	1630	–	27.78
338.15 K	1225.9	1619	–	23.9
343.15 K	1222.7	1608	–	20.71

[2]
Conditions	refractive index
298.15 K	1.50525 and 1.50252
303.15 K	1.50394
308.15 K	1.50258
313.15 K	1.5012
318.15 K	1.49976
323.15 K	1.4985
328.15 K	1.4972
333.15 K	1.49587
338.15 K	1.49454
343.15 K	1.49309

CCOS(=O)(=O)[O-].CC[n+]1ccccc1 [1-ethylpyridinium ethyl sulfate] + CCCO
[3]
Conditions	refractive index
x2 = 0	1.50525
x2 = 0.0814	1.50137
x2 = 0.1994	1.49499
x2 = 0.3084	1.48804
x2 = 0.4035	1.48081
x2 = 0.5077	1.47142
x2 = 0.6013	1.46126
x2 = 0.7016	1.44802
x2 = 0.8004	1.43181
x2 = 0.9002	1.411
x2 = 0.9521	1.39773

[4]
Conditions	mass density, 298.15 K [kg/m3]	mass density, 313.15 K [kg/m3]	mass density, 328.15 K [kg/m3]	speed of sound, 298.15 K [m/s]	speed of sound, 313.15 K [m/s]	speed of sound, 328.15 K [m/s]	viscosity, 298.15 K [mPa·s]	viscosity, 313.15 K [mPa·s]	viscosity, 328.15 K [mPa·s]
x2 = 0	1252	1242.1	1232.3	1711	1676	1641	126.3	57.6	38.6
x2 = 0.0814	1237.2	1227.4	1217.6	1689	1654	1619	95.2	48	32.49
x2 = 0.1994	1212.7	1202.7	1192.7	1649	1613	1578	62.7	34.23	23.31
x2 = 0.3084	1186.1	1176.1	1165.9	1608	1572	1537	43.6	25.21	17.27
x2 = 0.4035	1159	1148.5	1138.3	1565	1528	1493	30.03	18.31	12.21
x2 = 0.5077	1123.8	1113	1102.6	1516	1478	1440	20.12	12.91	8.898
x2 = 0.6013	1085.8	1074.8	1064.2	1466	1427	1388	13.68	9.161	6.523
x2 = 0.7016	1036.7	1025.2	1014.3	1409	1367	1327	8.84	6.131	4.494
x2 = 0.8004	976.9	965.3	954.1	1347	1304	1262	5.597	3.988	2.977
x2 = 0.9002	900.6	888.9	877.1	1279	1234	1189	3.483	2.507	1.874
x2 = 0.9521	852.4	840.3	828.1	1244	1195	1147	2.676	1.921	1.411

CCOS(=O)(=O)[O-].CC[n+]1ccccc1 [1-ethylpyridinium ethyl sulfate] + CCO
[3]
Conditions	refractive index
x2 = 0	1.50252
x2 = 0.0476	1.50313
x2 = 0.1993	1.49585
x2 = 0.2992	1.48987
x2 = 0.5009	1.47321
x2 = 0.6033	1.46152
x2 = 0.7023	1.44693
x2 = 0.8016	1.42734
x2 = 0.899	1.40078
x2 = 0.9476	1.38342

[4]
Conditions	mass density, 298.15 K [kg/m3]	mass density, 313.15 K [kg/m3]	mass density, 328.15 K [kg/m3]	speed of sound, 298.15 K [m/s]	speed of sound, 313.15 K [m/s]	speed of sound, 328.15 K [m/s]	viscosity, 298.15 K [mPa·s]	viscosity, 313.15 K [mPa·s]	viscosity, 328.15 K [mPa·s]
x2 = 0	1252	1242.1	1232.3	1711	1676	1641	126.3	57.6	38.6
x2 = 0.0476	1245.3	1235.3	1225.3	1700	1665	1631	103.3	50.3	34.14
x2 = 0.1993	1220.8	1210.8	1200.7	1661	1625	1591	58.4	33.9	22.38
x2 = 0.2992	1201.2	1190.9	1180.7	1630	1593	1558	40.3	23.51	15.2
x2 = 0.5009	1147.2	1136.4	1125.9	1546	1508	1472	17.27	11.39	8.015
x2 = 0.6033	1109.2	1098.4	1087.7	1491	1453	1388	10.79	7.07	5.198
x2 = 0.7023	1062	1051	1039.9	1428	1388	1350	6.63	4.8	3.642
x2 = 0.8016	999.9	988.1	976.6	1349	1308	1267	3.947	2.943	2.287
x2 = 0.899	915.5	903.3	890.1	1258	1214	1170	2.244	1.717	1.344
x2 = 0.9476	860.1	847.5	834.1	1206	1160	1113	1.641	1.261	0.987

CCO [ethanol]
[1], 101 kPa
Conditions	mass density [kg/m3]	speed of sound [m/s]	viscosity [mPa·s]
298.15 K	785.5	1146	1.082
313.15 K	772	1093	0.827
328.15 K	758.6	1043	0.641

Conditions	refractive index
[2], 298.15 K	1.36023

CCO [ethanol] + CCOS(=O)(=O)[O-].CC[n+]1ccccc1
Conditions	refractive index
[3], x1 = 1	1.36023

[4], x1 = 1
Conditions	mass density [kg/m3]	speed of sound [m/s]	viscosity [mPa·s]
298.15 K	785.5	1146	1.082
313.15 K	772	1093	0.827
328.15 K	758.6	1043	0.641

CCCO [propan-1-ol]
[1], 101 kPa
Conditions	mass density [kg/m3]	speed of sound [m/s]	viscosity [mPa·s]
298.15 K	799.6	1207	2.017
313.15 K	787.4	1155	1.43
328.15 K	774.8	1105	1.041

Conditions	refractive index
[2], 298.15 K	1.3831

CCCO [propan-1-ol] + CCOS(=O)(=O)[O-].CC[n+]1ccccc1
Conditions	refractive index
[3], x1 = 1	1.3831

[4], x1 = 1
Conditions	mass density [kg/m3]	speed of sound [m/s]	viscosity [mPa·s]
298.15 K	799.6	1207	2.017
313.15 K	787.4	1155	1.43
328.15 K	774.8	1105	1.041
